Test results as given in ChEMBL document CHEMBL1201862, “PubChem BioAssay data set” (2004).
The source made the active and inactive calls.

What was measured:
[1] = biological target: T1, Heat shock factor protein 1 (Mus musculus, UniProt P38532); assay: inhibition of MG132-induced HSE-luciferase signal, confirmation, cell-based, NIH3T3, luminescence, dose retest (AID 2382); assay type: functional;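 further: NIH3T3 fibroblasts with HSF1-driven luciferase reporter stressed by proteasome inhibitor MG132; luminescence from HSF1-driven luciferase expression after 8 hours of MG132 stress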
T1 sequence (P38532 whole entry): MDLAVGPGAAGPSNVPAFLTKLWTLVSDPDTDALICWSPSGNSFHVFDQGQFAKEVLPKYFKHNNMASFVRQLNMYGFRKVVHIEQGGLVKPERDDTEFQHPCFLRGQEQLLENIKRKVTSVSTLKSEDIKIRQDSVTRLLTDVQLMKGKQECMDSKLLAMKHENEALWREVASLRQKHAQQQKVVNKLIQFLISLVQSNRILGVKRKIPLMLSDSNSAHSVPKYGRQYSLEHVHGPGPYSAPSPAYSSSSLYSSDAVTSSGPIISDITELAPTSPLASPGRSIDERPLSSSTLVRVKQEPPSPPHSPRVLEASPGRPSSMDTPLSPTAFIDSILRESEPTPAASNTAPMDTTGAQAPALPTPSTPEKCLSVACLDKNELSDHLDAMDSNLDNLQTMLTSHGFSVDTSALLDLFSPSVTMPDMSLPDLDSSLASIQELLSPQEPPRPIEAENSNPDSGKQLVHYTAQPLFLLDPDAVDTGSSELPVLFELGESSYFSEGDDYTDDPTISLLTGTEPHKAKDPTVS

Cytochrome P450 2C19 = Cytochrome P450 2C19 (Homo sapiens, UniProt P33261); assay: Cytochrome panel assay with activity outcomes. Panel member name: p450-cyp2c19 Compounds with AC50 equal or less than 10 uM are considered active; assay type: functional; conditions: read-out: AC50
Cytochrome P450 2D6 = Cytochrome P450 2D6 (Homo sapiens, UniProt P10635);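 further: CYP2D6 member of a cytochrome P450 panel assay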
Cytochrome P450 2C9 = Cytochrome P450 2C9 (Homo sapiens, UniProt P11712)
[2] = inhibitors of intracellular T. cruzi replication, confirmation, NIH3T3 host cells, beta-gal luminescence (AID 2044); assay type: functional, cell-based;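 further: intracellular parasites grown in NIH/3T3 mouse fibroblasts as host cells; luminescent beta-galactosidase reporter signal from transgenic T. cruzi replicating inside host cells; inhibitors lower the luminescence signal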
[3] = cytotoxicity toward NIH3T3 fibroblasts, dose response, counter-screen, cell-based, ATP luminescence, mouse fibroblasts (AID 2010); assay type: functional;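 further: cells exposed to compound for about 90 hours before reading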
Cytochrome P450 3A4 = Cytochrome P450 3A4 (Homo sapiens, UniProt P08684);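 further: CYP3A4 tested as one member of a cytochrome P450 panel screen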
[4] = test system: Streptococcus sp. 'group A'; assay: growth inhibition of control SK(-) GAS strain, dose response, counter-screen for streptokinase expression inhibitor project, luminescence, kanamycin, BacTiterGlo, confirmation (AID 1900); assay type: functional, organism-based
Streptococcus = assay: Group A Streptococcus viability loss, dose response, counter-screen for streptokinase expression inhibitor project, luminescence, BacTiterGlo (AID 1915); assay type: functional, organism-based;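 further: potency for reduction of bacterial viability or growth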

Cytochrome P450 2C9, sequence (P11712 whole entry): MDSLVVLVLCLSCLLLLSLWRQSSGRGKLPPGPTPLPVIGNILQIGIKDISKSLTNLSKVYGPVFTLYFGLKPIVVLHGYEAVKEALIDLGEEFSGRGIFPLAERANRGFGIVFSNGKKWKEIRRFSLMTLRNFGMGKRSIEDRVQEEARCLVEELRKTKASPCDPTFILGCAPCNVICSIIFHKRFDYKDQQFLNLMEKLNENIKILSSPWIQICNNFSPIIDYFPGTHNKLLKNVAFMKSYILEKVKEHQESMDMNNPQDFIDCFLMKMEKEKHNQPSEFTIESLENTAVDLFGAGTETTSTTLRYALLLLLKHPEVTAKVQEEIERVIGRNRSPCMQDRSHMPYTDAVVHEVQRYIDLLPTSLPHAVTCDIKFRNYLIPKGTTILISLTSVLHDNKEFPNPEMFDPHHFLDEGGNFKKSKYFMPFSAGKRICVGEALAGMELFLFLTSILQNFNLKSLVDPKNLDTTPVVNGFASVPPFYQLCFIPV
Cytochrome P450 2D6, sequence (P10635 whole entry): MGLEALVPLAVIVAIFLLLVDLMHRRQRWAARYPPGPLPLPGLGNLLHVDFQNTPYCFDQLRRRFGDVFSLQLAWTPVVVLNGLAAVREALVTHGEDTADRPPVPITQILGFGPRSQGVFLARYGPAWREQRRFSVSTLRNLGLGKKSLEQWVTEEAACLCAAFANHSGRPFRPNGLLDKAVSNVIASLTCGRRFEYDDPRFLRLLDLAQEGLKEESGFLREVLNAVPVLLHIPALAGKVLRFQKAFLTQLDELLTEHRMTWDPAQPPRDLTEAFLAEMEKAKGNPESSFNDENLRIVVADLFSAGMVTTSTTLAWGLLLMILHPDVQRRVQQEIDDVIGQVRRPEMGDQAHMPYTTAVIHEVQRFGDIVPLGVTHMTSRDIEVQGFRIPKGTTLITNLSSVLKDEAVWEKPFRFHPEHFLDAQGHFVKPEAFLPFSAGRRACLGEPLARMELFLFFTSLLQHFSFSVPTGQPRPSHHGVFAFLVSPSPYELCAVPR
Cytochrome P450 3A4, sequence (P08684 whole entry): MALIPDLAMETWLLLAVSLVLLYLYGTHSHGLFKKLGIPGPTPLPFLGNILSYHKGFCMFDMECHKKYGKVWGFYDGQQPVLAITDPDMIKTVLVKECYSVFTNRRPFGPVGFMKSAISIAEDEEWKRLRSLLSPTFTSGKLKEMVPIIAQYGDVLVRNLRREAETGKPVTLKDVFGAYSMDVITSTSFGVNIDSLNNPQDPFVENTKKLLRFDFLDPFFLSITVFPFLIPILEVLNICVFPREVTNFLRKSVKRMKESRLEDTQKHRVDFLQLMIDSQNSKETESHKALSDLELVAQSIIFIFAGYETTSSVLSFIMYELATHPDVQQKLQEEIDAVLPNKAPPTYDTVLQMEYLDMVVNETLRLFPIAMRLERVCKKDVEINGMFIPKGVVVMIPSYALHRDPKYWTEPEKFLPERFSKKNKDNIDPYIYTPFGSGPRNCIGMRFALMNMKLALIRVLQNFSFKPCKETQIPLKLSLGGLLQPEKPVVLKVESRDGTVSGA
Cytochrome P450 2C19, sequence (P33261 whole entry): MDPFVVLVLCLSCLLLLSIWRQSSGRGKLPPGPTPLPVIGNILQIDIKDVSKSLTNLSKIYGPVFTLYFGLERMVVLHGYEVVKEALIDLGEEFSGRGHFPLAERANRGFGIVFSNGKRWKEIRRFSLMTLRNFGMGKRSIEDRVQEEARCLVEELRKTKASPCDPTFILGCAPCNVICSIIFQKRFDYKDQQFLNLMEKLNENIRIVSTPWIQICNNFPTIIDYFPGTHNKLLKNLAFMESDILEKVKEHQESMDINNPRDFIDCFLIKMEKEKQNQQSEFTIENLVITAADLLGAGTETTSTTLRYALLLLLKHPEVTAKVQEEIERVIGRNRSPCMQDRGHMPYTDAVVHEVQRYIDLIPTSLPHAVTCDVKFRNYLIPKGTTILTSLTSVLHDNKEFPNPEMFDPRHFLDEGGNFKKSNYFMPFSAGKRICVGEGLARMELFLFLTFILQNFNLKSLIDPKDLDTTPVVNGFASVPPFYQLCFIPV

SMILES	AC50 (Cytochrome P450 2C9)	EC50 [2]	EC50 [3]	also measured
Cc1ccc(Cn2c(Sc3ncccn3)nc3c2c(=O)[nH]c(=O)n3C)cc1	–	–	–	EC50 [1]: > 195 µM (not active)
COc1ccc(C(=O)Nc2ccc(S(=O)(=O)N3CCOCC3)cc2)cc1OC	28.2 µM (inconclusive)	–	–	AC50 (Cytochrome P450 2C19): 8.91 µM (inconclusive); AC50 (Cytochrome P450 2D6): 0.00794 µM (inconclusive)
Cc1cc(N/N=C/c2ccc(Cl)cc2)nc(NCc2ccccc2)n1	–	1.82 µM (active)	11.4 µM (active)	–
COc1cccc(CN(C)CC2CCCN(CCc3ccccc3C)C2)c1 (stereo not given)	–	0.184 µM (active)	24.6 µM (active)	–
Cc1cc(-c2cc(C)c(O)c(C(C)(C)C)c2)cc(C(C)(C)C)c1O	5.01 µM (inconclusive)	–	–	–
COc1cccc(Cn2c(=O)c(C)nc3cnc(N4CCNCC4)nc32)c1	–	–	–	AC50 (Cytochrome P450 2C19): 39.8 µM (inconclusive)
N#Cc1cccc(-c2nc(N3CCNCC3)c3ccccc3n2)c1	–	–	–	AC50 (Cytochrome P450 2D6): 39.8 µM (inconclusive)
O=C(NCCc1ccccc1)C(=O)NN=C1CCCC1	–	–	–	AC50 (Cytochrome P450 2C19): 0.355 µM (inconclusive); AC50 (Cytochrome P450 3A4): 31.6 µM (inconclusive)
CCCCCOc1ccc(Cn2ccnc2)cc1[N+](=O)[O-]	–	2.21 µM (active)	> 60 µM (not active)	–
CCN(CC)S(=O)(=O)c1ccc(C)c(NC(=O)Cn2cnc3cc([N+](=O)[O-])ccc3c2=O)c1	–	0.406 µM (active)	> 60 µM (not active)	–
CNc1nc(-c2ccccc2CN(C)C)nc2ccccc12	–	–	–	AC50 (Cytochrome P450 3A4): 25.1 µM (inconclusive)
COC(=O)[C@@]1(Cc2ccc(OC)cc2)[C@H]2c3cc(C(=O)N4CCCC4)n(C[C@H](O)CO)c3C[C@H]2CN1C(=O)c1ccccc1	31.6 µM (inconclusive)	–	–	AC50 (Cytochrome P450 2C19): 39.8 µM (inconclusive)
COc1ccccc1N1CCN(C(=O)c2ccc3[nH]c4c(c3c2)CC(C)CC4)CC1 (stereo not given)	–	2 µM (active)	> 60 µM (not active)	–
COc1ccc(/C=N/NC(N)=S)cc1OC(=O)c1cccc2ccccc12	6.31 µM (inconclusive)	–	–	–
CC[C@H](c1ccccc1)c1cc(C(C)(C)C)cc(C(C)(C)C)c1O	7.94 µM (inconclusive)	–	–	AC50 (Cytochrome P450 3A4): 5.01 µM (inconclusive)
COc1cccc(Cn2c(=O)c(-c3cccc(C#N)c3)nc3cnc(N4CCN(C)CC4)nc32)c1	–	–	–	AC50 (Cytochrome P450 3A4): 25.1 µM (inconclusive)
CC(C(=O)Nc1ccc(F)c(F)c1F)N(C)CC(=O)Nc1ccccc1Br (stereo not given)	–	1.71 µM (active)	> 60 µM (not active)	–
COc1ccc(C2CC(c3ccc(C)cc3)Nc3nc(N)nn32)cc1 (stereo not given)	–	7.21 µM (active)	> 60 µM (not active)	–
CCOC(=O)Cn1nnc2c(sc3nc4c(c(-c5ccc(Cl)cc5)c32)CCC4)c1=O	–	–	–	AC50 (Cytochrome P450 2C19): 7.08 µM (inconclusive)
CO[C@H]1COC(=O)[C@@H](Cc2ccccc2)NC(=O)[C@@H](C)COC(=O)C/C=C\[C@@H]1C	–	–	–	AC50 (Cytochrome P450 3A4): 6.31 µM (inconclusive)
CC(NCC(O)COC1CCC(C(C)(C)C)CC1)c1ccccc1 (stereo not given)	–	0.114 µM (active)	> 60 µM (not active)	–
CC(=O)OCC1=C(C(=O)O)N2C(=O)C(NC(=O)C(C)Cn3nc(C)c(Cl)c3C)C2SC1 (stereo not given)	–	–	–	EC50 [4]: 3.56 µM (active); EC50 (Streptococcus): 5.07 µM (active)
O=C(Nc1cc(Sc2ccccn2)cc([N+](=O)[O-])c1)c1ccc([N+](=O)[O-])cc1	10 µM (inconclusive)	–	–	AC50 (Cytochrome P450 2C19): 5.01 µM (inconclusive); AC50 (Cytochrome P450 3A4): 7.94 µM (inconclusive)
N#Cc1ccccc1-c1ccc2ncnc(NCc3cccnc3)c2c1	–	–	–	AC50 (Cytochrome P450 3A4): 2 µM (inconclusive)
Cn1cccc1C(=O)N1CCC[C@@]2(CCN(Cc3nccs3)C2)C1	31.6 µM (inconclusive)	–	–	AC50 (Cytochrome P450 2D6): 31.6 µM (inconclusive)
CCCCN1C(=O)NC(=O)/C(=C(/CC)NCCCN(C)C)C1=O	–	0.236 µM (active)	> 60 µM (not active)	–
CCC(NC(=O)c1ccc([N+](=O)[O-])cc1[N+](=O)[O-])c1ccccc1 (stereo not given)	–	0.879 µM (active)	> 60 µM (not active)	–
CCCCN(Cc1ccccc1)C(=O)c1cnc2n(c1=O)CCS2	8.91 µM (inconclusive)	–	–	AC50 (Cytochrome P450 2D6): 31.6 µM (inconclusive)
N=C1/C(=N/Nc2cccc(Cl)c2)C(=O)NN1c1ccccc1	1.26 µM (inconclusive)	–	–	–
COc1ccc(C2(C(=O)N3CCOCC3)CCCC2)cc1	–	–	–	AC50 (Cytochrome P450 3A4): 12.6 µM (inconclusive)
